# Entries after “also recorded” stand apart in the source; their conditions may differ.
# How the values were obtained:
# [1] = test system: HCT116 colon carcinoma cells; experiment: Screening for apoptosis inducers effective under hypoxia (MTT cytotoxicity, hypoxia vs normoxia); type: cell-based
# Experimental: FIG. 1. Discovery of compound AP-III-a4 (ENOblock). (a) Schematic of the screening system used to detect apoptosis inducers effective under hypoxia. HCT116 cancer cells were seeded in parallel 96-well culture plates. Hypoxia was induced in one plate using 150 μM cobalt chloride treatment. Triazine library compound at 5 μM concentration was added 4 h later, and cell death was determined 24 h after hypoxia induction. […] (b) Chemical structures of AP-III-a4 (ENOblock) and the control compounds, AP-IV-e3 and AP-I-f10. Chemical structures of GAPDS, which targets glyceraldehyde 3-phosphate dehydrogenase (GAPDH), and rosiglitazone, a well-known anti-diabetes drug, are also shown. […] Error=SD; *=P value<0.05 for increased cell death compared to normoxia. P value: hypox 10=1.23×10^−6; hypox 5=2.38×10^−6; hypox 2.5=1.16×10^−5; hypox 1.25=0.000334. (d) Representative phase contrast microscopic images of HCT116 colon cancer cells treated with ENOblock under normoxia or hypoxia.
# HCT116 colon carcinoma cells were seeded in 2 sets of 96 well plates at a density of 5×10^3 cells per well. ‘Low glucose’ DMEM (containing 5 mM glucose; Invitrogen, OR, USA) was used for screening, because glycolysis inhibitors, such as 2-Deoxy-D-glucose (2-DG), are effective by competing with glucose. 24 h later, the hypoxic condition was induced in one set of 96 well plates by treatment with 150 μM of 0.22 μm filtered CoCl2 and the culture media volume was reduced by 50% (to 100 μL/well), as previously described.^49 4 h later, test compounds from a tagged triazine library^5 were screened at a concentration of 5 μM in duplicate wells. Cytotoxicity was determined by MTT assay 24 h after adding drug. ‘Hits’ for further analysis were classified as compounds that 25% or higher cytotoxicity in the hypoxia condition compared to the normoxia condition (as measured by MTT assay absorbance). 50 μM 2-DG, an inhibitor of glycolysis that selectively kills cancer cells in hypoxic conditions^50, was used as a positive control.
# We developed a novel, dual screening system to identify molecules that preferentially kill cancer cells in a hypoxic environment (FIG. 1). A small molecule library of 384 triazines prepared on a solid support5 (5; FIG. 3) was screened. A “hit” molecule was defined as an inducer of at least 25% increased cancer cell toxicity in hypoxia compared to normoxia (as determined using the 3-(4,5-dimethylthiazol-2-yl)-2,5-diphenyltetrazolium bromide, a tetrazole (MTT) assay). Five from 384 triazines screened produced greater cancer cell toxicity under hypoxia.
# [2] = target: T1, enolase in HCT116 cancer cell lysate (Homo sapiens, UniProt P06733); experiment: Affinity chromatography / Western blot of affinity matrix eluate, cell lysate; type: binding
# T1 construct: endogenous in cells; host or cells: HCT116 colon carcinoma cells (lysate)
# T1 sequence (P06733 2-434): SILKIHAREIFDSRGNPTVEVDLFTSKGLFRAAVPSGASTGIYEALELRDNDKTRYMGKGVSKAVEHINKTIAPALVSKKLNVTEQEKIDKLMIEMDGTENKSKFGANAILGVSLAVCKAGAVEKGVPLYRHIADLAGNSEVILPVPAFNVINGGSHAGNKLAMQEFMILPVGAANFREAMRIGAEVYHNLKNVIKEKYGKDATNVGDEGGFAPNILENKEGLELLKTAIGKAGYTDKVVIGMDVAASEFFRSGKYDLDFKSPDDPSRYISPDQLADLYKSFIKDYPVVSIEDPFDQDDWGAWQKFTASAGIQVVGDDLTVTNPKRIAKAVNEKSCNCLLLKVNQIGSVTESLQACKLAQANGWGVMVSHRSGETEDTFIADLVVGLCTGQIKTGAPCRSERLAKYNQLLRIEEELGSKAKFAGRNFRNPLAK
# Experimental: (§1) FIG. 4. […] (a) Affinity chromatography study for ENOblock in HCT116 cancer cells. […] (b) Sequence identification for the enolase monomer subunit. […] Mascot scores above 100 were deemed to be significant. […] Twenty micrograms of cell lysate from YD-10B oral cancer cells or Huh7 hepatocytes were used as positive controls. […] As a positive control, ENOblock affinity matrix was incubated with 200 μg of HCT 116 cell lysate; 50 μg cell lysate from HCT116 cancer cells was used as a positive control for the enolase antibody.
# Affinity chromatography was used to identify the cellular target for AP-III-a4. Target identification strategies for the triazine library used in this study are relatively straightforward, because the molecules contain a built-in linker moiety. This allows conjugation to an affinity matrix with reduced risk of compromising biological activity.
# [3] = target: T2, Enolase purified from rabbit muscle (Oryctolagus cuniculus, UniProt P25704); experiment: Enolase activity assay; type: biochemical
# T2 construct: Enolase purified from rabbit muscle was purchased from Sigma-Aldrich; purchased Sigma-Aldrich; host or cells: rabbit muscle
# T2 sequence (P25704 whole entry): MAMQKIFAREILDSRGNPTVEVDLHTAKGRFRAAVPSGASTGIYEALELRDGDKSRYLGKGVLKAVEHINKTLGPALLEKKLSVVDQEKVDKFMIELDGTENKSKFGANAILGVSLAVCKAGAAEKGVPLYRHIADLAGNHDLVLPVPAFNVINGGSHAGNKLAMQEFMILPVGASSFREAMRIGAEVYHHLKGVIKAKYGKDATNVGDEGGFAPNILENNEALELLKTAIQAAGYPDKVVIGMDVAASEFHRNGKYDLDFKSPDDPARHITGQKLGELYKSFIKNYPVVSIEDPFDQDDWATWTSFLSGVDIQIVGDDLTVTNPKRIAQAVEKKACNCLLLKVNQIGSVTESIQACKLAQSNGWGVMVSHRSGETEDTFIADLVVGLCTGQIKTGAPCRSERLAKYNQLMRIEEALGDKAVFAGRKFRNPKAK
# Experimental: as §1
# Enolase purified from rabbit muscle was purchased from Sigma-Aldrich. A single unit of enolase is defined as the amount of enzyme that produces 1 μmol of phosphoenol pyruvate from phospho-D-glycerate/min in standard assay.^52 Enolase activity assay was measured at 37° C. by incubating pure enolase (3-9 U) in a buffer containing 50 mM imidazole-HCl (pH 6.8)(JUNSEI), 2.0 mM MgSO4 (JUNSEI) and 400 mM KCl (JUNSEI) in the absence or presence of ENOblock or NaF (Sigma). The reaction was initiated by adding 1 μmol of 2-phospho-D-glycerate, and the OD was measured after 10 min of reaction time with a spectrophometer at 240 nm.
# [4] = test system: AKT expression in HCT116 cancer cells; experiment: AKT Western blot; type: cell-based; details: 24 h treatment
# Experimental: FIG. 7. […] (b) Microscopic images of crystal violet stained HCT116 cells invaded onto the transwell inserts (scale bar=100 μm). […] (d) Microscopic images of crystal violet stained HCT116 cells migrated onto the transwell inserts (scale bar=100 μm). […] Cells were treated with 10 nM taxol and 10 nM vincristine, with or without 10 μM ENOblock. Error=SD; *=P<0.05 between the groups indicated on the graph. […] For the AKT Western blot, cells were treated with ENOblock for 24 h; for the Bcl-Xl Western blot, cells were treated with ENOblock for 48 h.
# Huh7 hepatocytes = experiment: Glucose uptake with fluorescent glucose probe 2-NBDG, hepatocytes; type: cell-based; details: 10 μM, 24 h
# HEK kidney cells = experiment: Glucose uptake with fluorescent glucose probe 2-NBDG, kidney cells; type: cell-based; details: 10 μM, 24 h
# [5] = test system: phosphoenolpyruvate carboxykinase (PEPCK) expression in Huh7 hepatocytes; experiment: PEPCK expression in hepatocytes; type: cell-based; details: 10 μM, 24 h
# Source text: (§2) FIG. 10. […] Error=SD; *=P<0.05 compared to the no drug (DMSO-treated) group. […] Error=SD; *=P<0.05 for reduced PEPCK expression compared to the no drug (DMSO-treated) group.
# [6] = test system: PEPCK expression in HEK cells; experiment: PEPCK expression in kidney cells; type: cell-based; details: 10 μM, 24 h
# Source text: as §2
# [7] = test system: 5′ AMP-activated protein kinase (AMPK) expression in hepatocytes; experiment: AMPK expression in hepatocytes; type: cell-based; details: 10 μM, 24 h
# Source text: as §2
# [8] = test system: pre-adipocytes undergoing adipogenesis; experiment: Adipogenesis lipid accumulation (Oil Red O staining); type: cell-based
# macrophages = experiment: Foam cell formation from macrophages treated with oleic acid; type: cell-based; details: 10 μM
# [9] = test system: PEPCK expression in adult zebrafish liver; experiment: PEPCK expression in adult zebrafish liver; details: 10 μM, 3 h
smiles,measurement,setting,value
NCCOCCOCCNC(=O)Cc1ccc(Nc2nc(NCc3ccc(F)cc3)nc(NCC3CCCCC3)n2)cc1 [ENOblock],cell viability of cancer cells cultured under hypoxia,[1]; FIG. 1c-1d,reduced cell viability dose-dependently
same,hit classification in triazine library screen (25% or greater cell death under hypoxia compared to normoxia),"[1]; HCT116, 5 μM compound, 24 h, MTT",best performing hit molecule
same,cell death in hypoxic conditions compared to normoxia,"[1]; HCT116, hypoxia by 150 μM cobalt chloride, MTT, FIG. 1c",higher levels of HCT116 colon cancer cell death in hypoxic conditions (Hypox) compared to normoxia
same,trypan blue uptake (cell death),[1]; under hypoxia,increased trypan blue uptake under hypoxia
same,competition by free compound for enolase binding to ENOblock affinity matrix,[2],completely inhibited enolase binding to the ENOblock affinity matrix
same,binding of lysate proteins/enolase to compound affinity matrix,"[2]; silver stain, mass spectrometry",enolase in HCT116 cancer cell lysate binds to the ENOblock affinity matrix
same,inhibition of purified enolase activity,"[3]; OD 240 nm, 37° C., 10 min",dose-dependently inhibited the activity of purified enolase; also recorded: enolase activity can be inhibited by ENOblock dose-dependently
same,enolase inhibitory concentration compared with sodium fluoride (NaF),[3]; purified enolase,markedly lower concentration than the wellknown enolase inhibitor
same,treatment concentration reducing enolase activity to the level approximated with 1 mM NaF,[3]; purified enolase,2.5 µM
same,AKT expression,[4],decreased the expression of AKT and Bcl-Xl
same,glucose uptake (2-NBDG),Huh7 hepatocytes,induced glucose uptake
same,glucose uptake (2-NBDG),HEK kidney cells,induced glucose uptake
same,PEPCK expression,[5],inhibited expression of PEPCK
same,PEPCK expression,[6],inhibited expression of PEPCK
same,AMPK expression,[7],did not affect expression of the enzymes
same,"lipid accumulation during adipogenesis (Oil Red O, microscopy)",[8]; 10 μM,inhibited lipid accumulation
same,quantification of lipid accumulation during adipogenesis,[8]; ENOblock treatment with adipogenic cocktail,blocked lipid accumulation during adipogenesis
same,"foam cell formation (Oil Red O staining, microscopy)",macrophages,inhibited foam cell formation
same,foam cell formation (count of cells showing lipid accumulation),macrophages,inhibited foam cell formation
same,hepatic PEPCK expression in vivo,[9],inhibited PEPCK expression in adult zebrafish liver

# Source: patent US9364480B2, “Pharmaceutical composition for preventing or treating cancer, containing enoblock as active ingredient” (GWANGJU INSTITUTE OF SCIENCE AND TECHNOLOGY, priority 2012, dated 2016)
